Consider 35 molecules from US20140155376A1, “PYRROLOPYRAZINE KINASE INHIBITORS” (Hoffmann-La Roche Inc., priority 2010, published 2014).

Broadly, the IC50 is the concentration that gives 50% inhibition.

Molecules are shown by their SMILES.

This experiment addresses T1, JAK3 (recombinant human kinase domain; h-jak3(810-1124)) (Homo sapiens, UniProt P52333).
T1 construct: h-jak3(810- 1124)-sf9-c; made in house; host or cells: Sf9 insect cells
As to the kind of experiment: Determination of IC50 of Janus Kinase (JAK) inhibition: JAK3, radioactive end-point assay with 33P-ATP. As to conditions: JAK3 kinase domain; ATP 1.5 uM, peptide 50 uM, 20 minutes, room temperature, 10% DMSO; read-out: Ic50 h-jak3(810-1124)-sf9-c:no additive. The experiment is classed as biochemical.

T1 sequence (P52333 810-1124): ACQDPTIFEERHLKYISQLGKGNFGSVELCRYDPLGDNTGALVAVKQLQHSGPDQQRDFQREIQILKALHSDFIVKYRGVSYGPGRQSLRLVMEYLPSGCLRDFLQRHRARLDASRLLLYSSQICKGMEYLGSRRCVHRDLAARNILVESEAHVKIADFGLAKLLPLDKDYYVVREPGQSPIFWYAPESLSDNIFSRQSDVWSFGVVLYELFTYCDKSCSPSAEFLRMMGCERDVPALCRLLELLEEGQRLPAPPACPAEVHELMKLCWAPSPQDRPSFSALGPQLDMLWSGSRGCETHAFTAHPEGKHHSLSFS

Take `O=C(NCC1CCCCC1)c1c[nH]c2ncc(C3CC3)nc12` [Example I-107, 2-Cyclopropyl-5H-pyrrolo[2,3-b]pyrazine-7-carboxylic acid cyclohexylmethyl-amide]: the IC50 was 61.3 nM. The figure for `CS(=O)(=O)N1CCCC(CNC(=O)c2c[nH]c3ncc(C4CC4)nc23)C1` (centres unmarked) [Example I-108, 2-Cyclopropyl-5H-pyrrolo[2,3-b]pyrazine-7-carboxylic acid (1-methanesulfonyl-piperidin-3-ylmethyl)-amide] is 163 nM; for `CS(=O)(=O)N1CCC(CNC(=O)c2c[nH]c3ncc(C4CC4)nc23)C1` (centres unmarked) [Example I-109, 2-Cyclopropyl-5H-pyrrolo[2,3-b]pyrazine-7-carboxylic acid (1-methanesulfonyl-pyrrolidin-3-ylmethyl)-amide] it is 231 nM; for `C[C@@H](NC(=O)c1c[nH]c2ncc(C3=CCOCC3)nc12)C(C)(C)O` [Example I-110, 2-(3,6-Dihydro-2H-pyran-4-yl)-5H-pyrrolo[2,3-b]pyrazine-7-carboxylic acid ((R)-2-hydroxy-1,2-dimethyl-propyl)-amide] it is 45.4 nM.

`C[C@@H](NC(=O)c1c[nH]c2ncc(-c3nccs3)nc12)C(C)(C)O` [Example I-111, 2-Thiazol-2-yl-5H-pyrrolo[2,3-b]pyrazine-7-carboxylic acid ((R)-2-hydroxy-1,2-dimethyl-propyl)-amide]: the 50% inhibitory concentration (IC50) turned out to be 276 nM. `C[C@@H](NC(=O)c1c[nH]c2ncc(-c3ccccn3)nc12)C(C)(C)O` [Example I-112, 2-Pyridin-2-yl-5H-pyrrolo[2,3-b]pyrazine-7-carboxylic acid ((R)-2-hydroxy-1,2-dimethyl-propyl)-amide]: the concentration for half-maximal inhibition (IC50) worked out at 86.2 nM.

As to `CC(NC(=O)c1c[nH]c2ncc(Oc3ccc(F)cc3)nc12)C1CC1` (centres unmarked) [Example I-113, 2-(4-Fluoro-phenoxy)-5H-pyrrolo[2,3-b]pyrazine-7-carboxylic acid (1-cyclopropyl-ethyl)-amide], the IC50 turned out to be 35.7 nM. The figure for `CC(NC(=O)c1c[nH]c2ncc(Oc3ccccc3F)nc12)C1CC1` (centres unmarked) [Example I-114, 2-(2-Fluoro-phenoxy)-5H-pyrrolo[2,3-b]pyrazine-7-carboxylic acid (1-cyclopropyl-ethyl)-amide] is 63.4 nM. As to `C[C@@H](NC(=O)c1c[nH]c2ncc(C#N)nc12)C(C)(C)O` [Example I-115, 2-Cyano-5H-pyrrolo[2,3-b]pyrazine-7-carboxylic acid ((R)-2-hydroxy-1,2-dimethyl-propyl)-amide], the concentration for half-maximal inhibition (IC50) amounted to 3300 nM. The same measure for `C[C@@H](NC(=O)c1c[nH]c2ncc(Oc3ccccc3)nc12)C(C)(C)O` [Example I-116, 2-Phenoxy-5H-pyrrolo[2,3-b]pyrazine-7-carboxylic acid ((R)-2-hydroxy-1,2-dimethyl-propyl)-amide]: 682 nM.

Turning to `C[C@@H](NC(=O)c1c[nH]c2ncc(C3CC3)nc12)C1(C#N)CCCCC1` [Example I-117, 2-Cyclopropyl-5H-pyrrolo[2,3-b]pyrazine-7-carboxylic acid [(R)-1-(1-cyano-cyclohexyl)-ethyl]-amide], the IC50 stood at 26.8 nM.

For the molecule `C[C@H](NC(=O)c1c[nH]c2ncc(C3CC3)nc12)C1(C#N)CCCCC1` [Example I-118, 2-Cyclopropyl-5H-pyrrolo[2,3-b]pyrazine-7-carboxylic acid [(S)-1-(1-cyano-cyclohexyl)-ethyl]-amide], the concentration for half-maximal inhibition (IC50) amounted to 150 nM.

For `C[C@H](NC(=O)c1c[nH]c2ncc(Oc3ccccc3)nc12)C(C)(C)C` [Example I-120, 2-Phenoxy-5H-pyrrolo[2,3-b]pyrazine-7-carboxylic acid ((S)-1,2,2-trimethyl-propyl)-amide], the half-inhibitory concentration (IC50) is 24.4 nM.

For the molecule `CC[C@H](C)NC(=O)c1c[nH]c2ncc(Oc3ccccc3)nc12` [Example I-121, 2-Phenoxy-5H-pyrrolo[2,3-b]pyrazine-7-carboxylic acid ((S)-sec-butyl)-amide], the 50% inhibitory concentration (IC50) came out at 59.5 nM. The same measure for `CC(C)[C@H](C)NC(=O)c1c[nH]c2ncc(Oc3ccccc3)nc12` [Example I-122, 2-Phenoxy-5H-pyrrolo[2,3-b]pyrazine-7-carboxylic acid ((S)-1,2-dimethyl-propyl)-amide]: 63.8 nM; for `C[C@H](NC(=O)c1c[nH]c2ncc(Oc3ccccc3)nc12)C1CCCCC1` [Example I-123, 2-Phenoxy-5H-pyrrolo[2,3-b]pyrazine-7-carboxylic acid ((S)-1-cyclohexyl-ethyl)-amide]: 1330 nM. Turning to `C[C@@H](NC(=O)c1c[nH]c2ncc(Oc3ccc(F)cc3F)nc12)C1CCCCC1` [Example I-124, 2-(2,4-Difluoro-phenoxy)-5H-pyrrolo[2,3-b]pyrazine-7-carboxylic acid ((R)-1-cyclohexyl-ethyl)-amide], the IC50 stood at 442 nM.

Turning to `C[C@H](NC(=O)c1c[nH]c2ncc(Oc3ccc(F)cc3F)nc12)C(C)(C)O` [Example I-125, 2-(2,4-Difluoro-phenoxy)-5H-pyrrolo[2,3-b]pyrazine-7-carboxylic acid ((S)-2-hydroxy-1,2-dimethyl-propyl)-amide], the IC50 was 502 nM. Turning to `CC[C@@H](C)NC(=O)c1c[nH]c2ncc(Oc3ccc(F)cc3F)nc12` [Example I-126, 2-(2,4-Difluoro-phenoxy)-5H-pyrrolo[2,3-b]pyrazine-7-carboxylic acid ((R)-sec-butyl)-amide], the IC50 came to 190 nM. The figure for `CC(C)[C@@H](C)NC(=O)c1c[nH]c2ncc(Oc3ccc(F)cc3F)nc12` [Example I-127, 2-(2,4-Difluoro-phenoxy)-5H-pyrrolo[2,3-b]pyrazine-7-carboxylic acid ((R)-1,2-dimethyl-propyl)-amide] is 143 nM; for `C[C@H](NC(=O)c1c[nH]c2ncc(Oc3ccccc3)nc12)C(C)(C)O` [Example I-128, 2-Phenoxy-5H-pyrrolo[2,3-b]pyrazine-7-carboxylic acid ((S)-2-hydroxy-1,2-dimethyl-propyl)-amide] it is 211 nM; for `C[C@@H](NC(=O)c1c[nH]c2ncc(Oc3ccccc3)nc12)C1CCCCC1` [Example I-129, 2-Phenoxy-5H-pyrrolo[2,3-b]pyrazine-7-carboxylic acid ((R)-1-cyclohexyl-ethyl)-amide] it is 222 nM. On to `C[C@@H](NC(=O)c1c[nH]c2ncc(Oc3ccccc3)nc12)C(C)(C)C` [Example I-130, 2-Phenoxy-5H-pyrrolo[2,3-b]pyrazine-7-carboxylic acid ((R)-1,2,2-trimethyl-propyl)-amide], for which the IC50 is 659 nM. The figure for `CCNC(=O)c1c[nH]c2ncc(Oc3ccccc3)nc12` [Example I-131, 2-Phenoxy-5H-pyrrolo[2,3-b]pyrazine-7-carboxylic acid ethylamide] is 1030 nM; for `CC(C)NC(=O)c1c[nH]c2ncc(Oc3ccc(F)cc3F)nc12` [Example I-132, 2-(2,4-Difluoro-phenoxy)-5H-pyrrolo[2,3-b]pyrazine-7-carboxylic acid isopropylamide] it is 415 nM; for `C[C@H](NC(=O)c1c[nH]c2ncc(Oc3ccc(F)cc3F)nc12)C(C)(C)C` [Example I-133, 2-(2,4-Difluoro-phenoxy)-5H-pyrrolo[2,3-b]pyrazine-7-carboxylic acid ((S)-1,2,2-trimethyl-propyl)-amide] it is 154 nM. The same measure for `C[C@@H](NC(=O)c1c[nH]c2ncc(Oc3ccc(F)cc3F)nc12)C(C)(C)C` [Example I-134, 2-(2,4-Difluoro-phenoxy)-5H-pyrrolo[2,3-b]pyrazine-7-carboxylic acid ((R)-1,2,2-trimethyl-propyl)-amide]: 891 nM; for `N#CC[C@@H](NC(=O)c1c[nH]c2ncc(C3CC3)nc12)C1CC1` [Example I-135, 2-Cyclopropyl-5H-pyrrolo[2,3-b]pyrazine-7-carboxylic acid ((R)-2-cyano-1-cyclopropyl-ethyl)-amide]: 20.6 nM; for `CC(=O)N1CCCC(CNC(=O)c2c[nH]c3ncc(C4CC4)nc23)C1` (centres unmarked) [Example I-136, 2-Cyclopropyl-5H-pyrrolo[2,3-b]pyrazine-7-carboxylic acid (1-acetyl-piperidin-3-ylmethyl)-amide]: 283 nM. The figure for `CC(=O)N1CCC(CNC(=O)c2c[nH]c3ncc(C4CC4)nc23)C1` (centres unmarked) [Example I-137, 2-Cyclopropyl-5H-pyrrolo[2,3-b]pyrazine-7-carboxylic acid (1-acetyl-pyrrolidin-3-ylmethyl)-amide] is 346 nM; for `CCn1cc(-c2cnc3[nH]cc(C(=O)N[C@@H](C)C4(O)CCCC4)c3n2)cn1` [Example I-138, 2-(1-Ethyl-1H-pyrazol-4-yl)-5H-pyrrolo[2,3-b]pyrazine-7-carboxylic acid [(S)-1-(1-hydroxy-cyclopentyl)-ethyl]-amide] it is 5.01 nM; for `C[C@H](NC(=O)c1c[nH]c2ncc(-c3cnn(C)c3)nc12)C(C)(C)C#N` [Example I-139, 2-(1-Methyl-1H-pyrazol-4-yl)-5H-pyrrolo[2,3-b]pyrazine-7-carboxylic acid ((S)-2-cyano-1,2,2-trimethyl-ethyl)-amide] it is 0.55 nM.

On to `C[C@H](NC(=O)c1c[nH]c2ncc(-c3cnn(C)c3)nc12)C1CCCCC1` [Example I-140, 2-(1-Methyl-1H-pyrazol-4-yl)-5H-pyrrolo[2,3-b]pyrazine-7-carboxylic acid ((S)-1-cyclohexyl-ethyl)-amide], for which the IC50 amounted to 0.88 nM. Take `C[C@H](NC(=O)c1c[nH]c2ncc(-c3cnn(C)c3)nc12)C(C)(C)C` [Example I-141, 2-(1-Methyl-1H-pyrazol-4-yl)-5H-pyrrolo[2,3-b]pyrazine-7-carboxylic acid ((S)-1,2,2-trimethyl-propyl)-amide]: the IC50 was 0.19 nM.

Consider `C[C@H](NC(=O)c1c[nH]c2ncc(-c3cccs3)nc12)C(C)(C)C` [Example I-142, 2-Thiophen-2-yl-5H-pyrrolo[2,3-b]pyrazine-7-carboxylic acid ((S)-1,2,2-trimethyl-propyl)-amide], for which the IC50 was determined as 0.18 nM.
